# Where a SMILES comes first, the peptide text is derived from it. [ ]: non-standard residue; d: D form. Phe(4-NH2) = Nc1ccc(C[C@H](N)C(=O)O)cc1; Cha = N[C@@H](CC1CCCCC1)C(=O)O; aThr = C[C@H](O)[C@H](N)C(=O)O; Chg = N[C@H](C(=O)O)C1CCCCC1; Tle = CC(C)(C)[C@H](N)C(=O)O; dDab = NCC[C@@H](N)C(=O)O; Orn = NCCC[C@H](N)C(=O)O; Dab = NCC[C@H](N)C(=O)O; Nva = CCC[C@H](N)C(=O)O; Dap = NC[C@H](N)C(=O)O
# Test system: human red blood cells (hRBC)
# Assay: Hemolysis of human red blood cells
# Type: cell-based
# Conditions: red cells of human, 1 h, 100
# Method in brief: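 Washed fresh human erythrocytes (20% v/v, about 0.9×10^9 cells/ml final) incubated with peptide at 100 μg/ml for 1 h at 37° C with shaking. Supernatant OD540 read; hemolysis expressed relative to 2.5% Triton X-100 (100%) and PBS with 0.001% acetic acid (0%).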
row,SMILES,Hemolysis at 100 μg/ml
1,C[C@@H]1NC(=O)[C@H](Cc2c[nH]c3ccccc23)NC(=O)[C@@H]2CCCN2C(=O)[C@H]2CCCN2C(=O)[C@H](CO)NC(=O)[C@H](C)NC(=O)[C@H](C(C)(C)C)NC(=O)[C@H](CCN)NC(=O)[C@H](Cc2c[nH]c3ccccc23)NC(=O)[C@H](CCN)NC(=O)[C@@H](CCN)NC(=O)[C@H](CCCCN)NC(=O)[C@H](CCN)NC(=O)[C@H](Cc2ccc(O)cc2)NC1=O [compound 78] (cyclo(WAY[Dab]K[dDab][Dab]W[Dab][Tle]AS[dP]P)),1%
2,C[C@@H]1NC(=O)[C@H](C(C)(C)C)NC(=O)[C@H](CCN)NC(=O)[C@H](Cc2c[nH]c3ccccc23)NC(=O)[C@H](CCN)NC(=O)[C@@H](CCN)NC(=O)[C@H](CCCN)NC(=O)[C@H](CCN)NC(=O)[C@H](Cc2c[nH]c3ccccc23)NC(=O)[C@H](CN)NC(=O)[C@H](Cc2c[nH]c3ccccc23)NC(=O)[C@@H]2CCCN2C(=O)[C@H]2CCCN2C(=O)[C@H](CO)NC1=O [compound 79] (cyclo(W[Dap]W[Dab][Orn][dDab][Dab]W[Dab][Tle]AS[dP]P)),1%
3,CCC[C@@H]1NC(=O)[C@@H]2CCCN2C(=O)[C@H]2CCCN2C(=O)[C@H](CO)NC(=O)[C@H](C)NC(=O)[C@H](C(C)(C)C)NC(=O)[C@H](CCN)NC(=O)[C@H](Cc2c[nH]c3ccccc23)NC(=O)[C@H](CCN)NC(=O)[C@@H](CCN)NC(=O)[C@H](CCCN)NC(=O)[C@H](CCN)NC(=O)[C@H](Cc2c[nH]c3ccccc23)NC(=O)[C@H](CO)NC1=O [compound 80] (cyclo([Nva]SW[Dab][Orn][dDab][Dab]W[Dab][Tle]AS[dP]P)),1%
4,CC[C@H](C)[C@@H]1NC(=O)[C@H](CCN)NC(=O)[C@H](Cc2c[nH]c3ccccc23)NC(=O)[C@H](CCN)NC(=O)[C@@H](CCN)NC(=O)[C@H](CCCN)NC(=O)[C@H](CCN)NC(=O)[C@H](Cc2ccc(O)cc2)NC(=O)[C@H](CO)NC(=O)[C@H]([C@@H](C)CC)NC(=O)[C@@H]2CCCN2C(=O)[C@H]2CCCN2C(=O)[C@H](CO)NC(=O)[C@H](C)NC1=O [compound 81] (cyclo(ISY[Dab][Orn][dDab][Dab]W[Dab]IAS[dP]P)),1%
5,CC[C@H](C)[C@@H]1NC(=O)[C@@H]2CCCN2C(=O)[C@H]2CCCN2C(=O)[C@H](CO)NC(=O)[C@H](C)NC(=O)[C@H](C(C)(C)C)NC(=O)[C@H](CCN)NC(=O)[C@H](Cc2c[nH]c3ccccc23)NC(=O)[C@H](CCN)NC(=O)[C@@H](CCN)NC(=O)[C@H](CCCCN)NC(=O)[C@H](CCN)NC(=O)[C@H](Cc2ccc(O)cc2)NC(=O)[C@H](CO)NC1=O [compound 82] (cyclo(ISY[Dab]K[dDab][Dab]W[Dab][Tle]AS[dP]P)),1%
6,CC[C@H](C)[C@@H]1NC(=O)[C@@H]2CCCN2C(=O)[C@H]2CCCN2C(=O)[C@H](CO)NC(=O)[C@H](C)NC(=O)[C@H](C(C)(C)C)NC(=O)[C@H](CCN)NC(=O)[C@H](Cc2c[nH]c3ccccc23)NC(=O)[C@H](CCN)NC(=O)[C@@H](CCN)NC(=O)[C@H](CCCN)NC(=O)[C@H](CCN)NC(=O)[C@H](Cc2ccc(N)cc2)NC(=O)[C@H](CO)NC1=O [compound 83] (cyclo(IS[Phe(4-NH2)][Dab][Orn][dDab][Dab]W[Dab][Tle]AS[dP]P)),0.5%
7,CC[C@H](C)[C@@H]1NC(=O)[C@@H]2CCCN2C(=O)[C@H]2CCCN2C(=O)[C@H](CO)NC(=O)[C@H](C)NC(=O)[C@H](C(C)(C)C)NC(=O)[C@H](CCN)NC(=O)[C@H](Cc2c[nH]c3ccccc23)NC(=O)[C@H](CCN)NC(=O)[C@@H](CCN)NC(=O)[C@H](CCCN)NC(=O)[C@H](CCN)NC(=O)[C@H](Cc2ccc(O)cc2)NC(=O)[C@H]([C@@H](C)O)NC1=O [compound 84] (cyclo(ITY[Dab][Orn][dDab][Dab]W[Dab][Tle]AS[dP]P)),0%
8,CC[C@H](C)[C@@H]1NC(=O)[C@@H]2CCCN2C(=O)[C@H]2CCCN2C(=O)[C@H](CO)NC(=O)[C@H](C)NC(=O)[C@H](C(C)(C)C)NC(=O)[C@H](CCN)NC(=O)[C@H](Cc2c[nH]c3ccccc23)NC(=O)[C@H](CCN)NC(=O)[C@@H](CCN)NC(=O)[C@H](CCCN)NC(=O)[C@H](CCN)NC(=O)[C@H](Cc2ccc(O)cc2)NC(=O)[C@H](CC(N)=O)NC1=O [compound 85] (cyclo(INY[Dab][Orn][dDab][Dab]W[Dab][Tle]AS[dP]P)),0%
9,CC[C@H](C)[C@@H]1NC(=O)[C@@H]2CCCN2C(=O)[C@H]2CCCN2C(=O)[C@H](CO)NC(=O)[C@H](C)NC(=O)[C@H](C(C)(C)C)NC(=O)[C@H](CCN)NC(=O)[C@H](Cc2c[nH]c3ccccc23)NC(=O)[C@H](CCN)NC(=O)[C@@H](CCN)NC(=O)[C@H](CCCN)NC(=O)[C@H](CCN)NC(=O)[C@H](Cc2ccc(O)cc2)NC(=O)[C@H]([C@H](C)O)NC1=O [compound 86] (cyclo(I[aThr]Y[Dab][Orn][dDab][Dab]W[Dab][Tle]AS[dP]P)),1%
10,CC(C)C[C@@H]1NC(=O)[C@@H]2CCCN2C(=O)[C@H]2CCCN2C(=O)[C@H](CO)NC(=O)[C@H](C)NC(=O)[C@H](C(C)(C)C)NC(=O)[C@H](CCN)NC(=O)[C@H](Cc2c[nH]c3ccccc23)NC(=O)[C@H](CCN)NC(=O)[C@@H](CCN)NC(=O)[C@H](CCCN)NC(=O)[C@H](CCCN)NC(=O)[C@H](Cc2ccc(O)cc2)NC(=O)[C@H](CO)NC1=O [compound 87] (cyclo(LSY[Orn][Orn][dDab][Dab]W[Dab][Tle]AS[dP]P)),1%
11,CC(C)C[C@@H]1NC(=O)[C@@H]2CCCN2C(=O)[C@H]2CCCN2C(=O)[C@H]([C@@H](C)O)NC(=O)[C@H](C)NC(=O)[C@H](C(C)(C)C)NC(=O)[C@H](CCN)NC(=O)[C@H](Cc2c[nH]c3ccccc23)NC(=O)[C@H](CCN)NC(=O)[C@@H](CCN)NC(=O)[C@H](CCCN)NC(=O)[C@H](CCN)NC(=O)[C@H](Cc2ccc(O)cc2)NC(=O)[C@H](CO)NC1=O [compound 88] (cyclo(LSY[Dab][Orn][dDab][Dab]W[Dab][Tle]AT[dP]P)),1%
12,CCC[C@@H]1NC(=O)[C@@H]2CCCN2C(=O)[C@H]2CCCN2C(=O)[C@H](CO)NC(=O)[C@H](C)NC(=O)[C@H](C2CCCCC2)NC(=O)[C@H](CCN)NC(=O)[C@H](Cc2c[nH]c3ccccc23)NC(=O)[C@H](CCN)NC(=O)[C@@H](CCN)NC(=O)[C@H](CCCN)NC(=O)[C@H](CCN)NC(=O)[C@H](Cc2ccc(O)cc2)NC(=O)[C@H](CO)NC1=O [compound 89] (cyclo([Nva]SY[Dab][Orn][dDab][Dab]W[Dab][Chg]AS[dP]P)),0%
13,CC(C)[C@@H]1NC(=O)[C@@H]2CCCN2C(=O)[C@H]2CCCN2C(=O)[C@H](CO)NC(=O)[C@H](C)NC(=O)[C@H](C2CCCCC2)NC(=O)[C@H](CCN)NC(=O)[C@H](Cc2c[nH]c3ccccc23)NC(=O)[C@H](CCN)NC(=O)[C@@H](CCN)NC(=O)[C@H](CCCN)NC(=O)[C@H](CCN)NC(=O)[C@H](Cc2ccc(O)cc2)NC(=O)[C@H](CO)NC1=O [compound 90] (cyclo(VSY[Dab][Orn][dDab][Dab]W[Dab][Chg]AS[dP]P)),2%
14,CC(C)C[C@@H]1NC(=O)[C@@H]2CCCN2C(=O)[C@H]2CCCN2C(=O)[C@H](CO)NC(=O)[C@H](C)NC(=O)[C@H](C(C)(C)C)NC(=O)[C@H](CCN)NC(=O)[C@H](Cc2c[nH]c3ccccc23)NC(=O)[C@H](CCN)NC(=O)[C@@H](CCN)NC(=O)[C@H](CCCN)NC(=O)[C@H](CN)NC(=O)[C@H](Cc2ccc(O)cc2)NC(=O)[C@H](CO)NC1=O [compound 91] (cyclo(LSY[Dap][Orn][dDab][Dab]W[Dab][Tle]AS[dP]P)),0%
15,CC(C)[C@@H]1NC(=O)[C@@H]2CCCN2C(=O)[C@H]2CCCN2C(=O)[C@H](CO)NC(=O)[C@H](C)NC(=O)[C@H](CC2CCCCC2)NC(=O)[C@H](CCN)NC(=O)[C@H](Cc2c[nH]c3ccccc23)NC(=O)[C@H](CCN)NC(=O)[C@@H](CCN)NC(=O)[C@H](CCCN)NC(=O)[C@H](CCN)NC(=O)[C@H](Cc2ccc(O)cc2)NC(=O)[C@H](CO)NC1=O [compound 92] (cyclo(VSY[Dab][Orn][dDab][Dab]W[Dab][Cha]AS[dP]P)),5%
16,CCC[C@@H]1NC(=O)[C@@H]2CCCN2C(=O)[C@H]2CCCN2C(=O)[C@H](CO)NC(=O)[C@H](C)NC(=O)[C@H](CC2CCCCC2)NC(=O)[C@H](CCN)NC(=O)[C@H](Cc2c[nH]c3ccccc23)NC(=O)[C@H](CCN)NC(=O)[C@@H](CCN)NC(=O)[C@H](CCCN)NC(=O)[C@H](CCN)NC(=O)[C@H](Cc2ccc(O)cc2)NC(=O)[C@H](CO)NC1=O [compound 93] (cyclo([Nva]SY[Dab][Orn][dDab][Dab]W[Dab][Cha]AS[dP]P)),5%
17,CC(C)C[C@@H]1NC(=O)[C@@H]2CCCN2C(=O)[C@H]2CCCN2C(=O)[C@H](CO)NC(=O)[C@H](C)NC(=O)[C@H](C2CCCCC2)NC(=O)[C@H](CCN)NC(=O)[C@H](Cc2c[nH]c3ccccc23)NC(=O)[C@H](CCN)NC(=O)[C@H](CCN)NC(=O)[C@H](CCCN)NC(=O)[C@H](CCN)NC(=O)[C@H](Cc2ccc(O)cc2)NC(=O)[C@H](CO)NC1=O [compound 94] (cyclo(LSY[Dab][Orn][Dab][Dab]W[Dab][Chg]AS[dP]P)),0%
18,CC(C)C[C@@H]1NC(=O)[C@@H]2CCCN2C(=O)[C@H]2CCCN2C(=O)[C@H](CO)NC(=O)[C@H](C)NC(=O)[C@H](C(C)(C)C)NC(=O)[C@H](CCN)NC(=O)[C@H](Cc2c[nH]c3ccccc23)NC(=O)[C@H](CCN)NC(=O)[C@@H](CCN)NC(=O)[C@H](CN)NC(=O)[C@H](CCN)NC(=O)[C@H](Cc2ccc(O)cc2)NC(=O)[C@H](CO)NC1=O [compound 95] (cyclo(LSY[Dab][Dap][dDab][Dab]W[Dab][Tle]AS[dP]P)),1%
19,CC(C)C[C@@H]1NC(=O)[C@@H]2CCCN2C(=O)[C@H]2CCCN2C(=O)[C@H](CO)NC(=O)[C@H](C)NC(=O)[C@H](C(C)(C)C)NC(=O)[C@H](CCN)NC(=O)[C@H](Cc2c[nH]c3ccccc23)NC(=O)[C@H](CCN)NC(=O)[C@@H](CCN)NC(=O)[C@H](CCN)NC(=O)[C@H](CCN)NC(=O)[C@H](Cc2ccc(O)cc2)NC(=O)[C@H](CO)NC1=O [compound 96] (cyclo(LSY[Dab][Dab][dDab][Dab]W[Dab][Tle]AS[dP]P)),1%

# — patent US9938322B2, “β-hairpin peptidomimetics” (priority 2013, dated 2018)
